Where “and” joins values, the source holds several entries; their conditions need not be identical. Equal values may be shown once. Inconclusive results and toxic doses are left out.
Test system: L1210 leukemia ip in BDF1 mice, survival T/C
Test: NCI In Vivo Anticancer Drug Screen. Data for tumor model L1210 Leukemia (intraperitoneal) in B6D2F1 (BDF1) mice
Details: endpoint: mean survival time, higher = longer survival
Summary of the method: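 Survival endpoint. Drug-treated group vs vehicle group, expressed as T divided by C. Tumor passaged by transplantation.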

[1] = dose: 50.0 mg/kg/injection, schedule: Q04DX003 (ip), vehicle: saline with Tween-80
[2] = dose: 100.0 mg/kg/injection, schedule: Q01DX001 (ip), vehicle: saline with Tween-80
[3] = dose: 100.0 mg/kg/injection, schedule: Q01DX009 (ip), vehicle: saline with Tween-80
[4] = dose: 100.0 mg/kg/injection, schedule: Q04DX003 (ip), vehicle: saline with Tween-80
[5] = dose: 200.0 mg/kg/injection, schedule: Q01DX001 (ip), vehicle: saline with Tween-80
[6] = dose: 200.0 mg/kg/injection, schedule: Q01DX009 (ip), vehicle: saline with Tween-80
[7] = dose: 200.0 mg/kg/injection, schedule: Q04DX003 (ip), vehicle: saline with Tween-80
[8] = dose: 400.0 mg/kg/injection, schedule: Q01DX001 (ip), vehicle: saline with Tween-80
[9] = dose: 400.0 mg/kg/injection, schedule: Q01DX009 (ip), vehicle: saline with Tween-80
[10] = dose: 400.0 mg/kg/injection, schedule: Q04DX003 (ip), vehicle: saline with Tween-80
[11] = dose: 37.5 mg/kg/injection, schedule: Q04DX003 (ip), vehicle: saline
[12] = dose: 100.0 mg/kg/injection, schedule: Q01DX009 (ip), vehicle: Klucel (hydroxypropylcellulose) (HPC)
[13] = dose: 50.0 mg/kg/injection, schedule: Q01DX001 (ip), vehicle: saline
[14] = dose: 100.0 mg/kg/injection, schedule: Q01DX001 (ip), vehicle: saline
[15] = dose: 200.0 mg/kg/injection, schedule: Q01DX001 (ip), vehicle: saline
[16] = dose: 400.0 mg/kg/injection, schedule: Q01DX001 (ip), vehicle: saline
[17] = dose: 100.0 mg/kg/injection, schedule: Q04DX003 (ip), vehicle: Klucel (hydroxypropylcellulose) (HPC)
[18] = dose: 200.0 mg/kg/injection, schedule: Q04DX003 (ip), vehicle: Klucel (hydroxypropylcellulose) (HPC)
[19] = dose: 400.0 mg/kg/injection, schedule: Q04DX003 (ip), vehicle: Klucel (hydroxypropylcellulose) (HPC)
[20] = dose: 200.0 mg/kg/injection, schedule: Q01DX009 (ip), vehicle: Klucel (hydroxypropylcellulose) (HPC)
[21] = dose: 400.0 mg/kg/injection, schedule: Q01DX009 (ip), vehicle: Klucel (hydroxypropylcellulose) (HPC)
[22] = dose: 75.0 mg/kg/injection, schedule: Q04DX003 (ip), vehicle: saline

`O=C(Nc1ccc(Cl)cc1[N+](=O)[O-])Oc1ccc(Cl)cc1Cc1ccccc1` was tested, and the T/C [1] was 116 % of control, the T/C [2] was 98 % of control and the T/C [3] was 100 % of control and 87 % of control. For the same compound, the T/C (dose: 100.0 mg/kg/injection, schedule: Q04DX002 (ip), vehicle: saline with Tween-80) was 98 % of control and 102 % of control, the T/C [4] was 98 % of control and 92 % of control and the T/C [5] was 93 % of control. The T/C [6] was 94 % of control and 95 % of control, the T/C (dose: 200.0 mg/kg/injection, schedule: Q04DX002 (ip), vehicle: saline with Tween-80) was 94 % of control and 98 % of control and the T/C [7] was 102 % of control. For the same compound, the T/C [8] was 91 % of control, the T/C [9] was 94 % of control and 90 % of control and the T/C (dose: 400.0 mg/kg/injection, schedule: Q04DX002 (ip), vehicle: saline with Tween-80) was 96 % of control and 98 % of control. For the same compound, the T/C [10] was 102 % of control and 87 % of control.
For `O=C(CCN1CC1)OCCOC(=O)CCN1CC1`, the T/C (dose: 7.1 mg/kg/injection, schedule: Q01DX Z (ip), vehicle: methylcellulose (MC)) was 97 % of control, the T/C (dose: 7.2 mg/kg/injection, schedule: Q01DX005 (ip), vehicle: saline) was 121 % of control and the T/C (dose: 10.6 mg/kg/injection, schedule: Q01DX Z (ip), vehicle: methylcellulose (MC)) was 113 % of control. For the same compound, the T/C (dose: 12.5 mg/kg/injection, schedule: Q04DX003 (ip), vehicle: acetone) was 109 % of control, the T/C (dose: 16.0 mg/kg/injection, schedule: Q01DX Z (ip), vehicle: methylcellulose (MC)) was 113 % of control and 120 % of control and the T/C (dose: 16.5 mg/kg/injection, schedule: Q04DX003 (ip), vehicle: acetone) was 101 % of control. For the same compound, the T/C (dose: 16.5 mg/kg/injection, schedule: Q04DX003 (ip), vehicle: saline) was 110 % of control, the T/C (dose: 22.0 mg/kg/injection, schedule: Q01DX001 (ip), vehicle: saline) was 122 % of control and the T/C (dose: 24.0 mg/kg/injection, schedule: Q01DX Z (ip), vehicle: methylcellulose (MC)) was 98 % of control and 103 % of control. The T/C (dose: 25.0 mg/kg/injection, schedule: Q01DX009 (ip), vehicle: acetone) was 150 % of control, the T/C (dose: 25.0 mg/kg/injection, schedule: Q04DX003 (ip), vehicle: acetone) was 103 % of control and the T/C (dose: 37.5 mg/kg/injection, schedule: Q01DX009 (ip), vehicle: acetone) was 160 % of control. The T/C (dose: 37.5 mg/kg/injection, schedule: Q04DX003 (ip), vehicle: acetone) was 106 % of control, the T/C [11] was 105 % of control and the T/C (dose: 50.0 mg/kg/injection, schedule: Q04DX003 (ip), vehicle: acetone) was 124 % of control. For the same compound, the T/C (dose: 55.0 mg/kg/injection, schedule: Q01DX005 (ip), vehicle: saline) was 155 % of control.
For `FC(F)(F)c1cccc(P(c2cccc(C(F)(F)F)c2)c2ccccc2C(F)(F)F)c1`, the T/C [4] was 95 % of control and the T/C [10] was 87 % of control.
For `O=C(O)CC1CCCCC1NC(=O)c1ccccc1` (stereo unspecified), the T/C [2] was 100 % of control, the T/C [5] was 94 % of control and the T/C [8] was 95 % of control.
For `O=C(NCc1ccco1)c1cccc(F)c1`, the T/C (dose: 25.0 mg/kg/injection, schedule: Q01DX009 (ip), vehicle: Klucel (hydroxypropylcellulose) (HPC)) was 93 % of control, the T/C (dose: 50.0 mg/kg/injection, schedule: Q01DX009 (ip), vehicle: Klucel (hydroxypropylcellulose) (HPC)) was 95 % of control and the T/C [12] was 104 % of control and 109 % of control.
In the case of `C1=CC2C3C=CC(C3)C2C1` (stereo unspecified), the T/C [1] was 95 % of control, the T/C [4] was 95 % of control and the T/C [7] was 93 % of control.
With `CC12NC(=O)NC(=O)N1CCS2` (stereo unspecified) the T/C [13] was 100 % of control, the T/C [14] was 106 % of control and the T/C [15] was 102 % of control. The T/C [16] was 100 % of control.
For `CC(C)C1CC(C)(C)c2cc(O)ccc2O1` (stereo unspecified), the T/C [17] was 101 % of control, the T/C [18] was 105 % of control and the T/C [19] was 100 % of control.
With `COC(=O)C1C2CC3OC(=O)C1(C)C3C2` (stereo unspecified) the T/C [14] was 103 % of control, the T/C [15] was 98 % of control and the T/C [16] was 97 % of control.
`CC(=O)C(C(c1ccccc1)N1CCCc2ccccc21)N1CCOCC1` (stereo unspecified) was tested, and the T/C [12] was 96 % of control, the T/C [20] was 91 % of control and the T/C [21] was 98 % of control.
In the case of `OC1C(OCc2ccccc2)OC(COCc2ccccc2)C(OC2OC(COCc3ccccc3)C(OCc3ccccc3)C(OCc3ccccc3)C2OCc2ccccc2)C1OCc1ccccc1` (stereo unspecified), the T/C (dose: 200.0 mg/kg/injection, schedule: Q01DX009 (ip), vehicle: alcohol) was 94 % of control and the T/C (dose: 400.0 mg/kg/injection, schedule: Q01DX009 (ip), vehicle: alcohol) was 86 % of control.
`O=[N+]([O-])C=C([SH2+])[SH2+].O=[N+]([O-])C=C([SH2+])[SH2+].[Ni+2].c1ccc(C[P+](c2ccccc2)(c2ccccc2)c2ccccc2)cc1` was tested, and the T/C [22] was 101 % of control and the T/C (dose: 150.0 mg/kg/injection, schedule: Q04DX003 (ip), vehicle: saline) was 101 % of control.
With `CCCCCCC(=O)C(CCCC)(C(=O)OCC)C(=O)OCC` the T/C [12] was 101 % of control, the T/C [20] was 104 % of control and the T/C [21] was 101 % of control.
`OC1CSCSC1` was tested, and the T/C [3] was 98 % of control, the T/C [4] was 98 % of control and the T/C [6] was 94 % of control. For the same compound, the T/C [7] was 98 % of control, the T/C [9] was 94 % of control and the T/C [10] was 98 % of control.
`CNCCN(C)CCN(C)Cc1ccc(OC)cc1` was tested, and the T/C (dose: 25.0 mg/kg/injection, schedule: Q01DX009 (ip), vehicle: water) was 105 % of control, the T/C (dose: 50.0 mg/kg/injection, schedule: Q01DX009 (ip), vehicle: water) was 102 % of control and the T/C (dose: 100.0 mg/kg/injection, schedule: Q01DX009 (ip), vehicle: water) was 100 % of control. The T/C (dose: 200.0 mg/kg/injection, schedule: Q01DX009 (ip), vehicle: water) was 107 % of control.
In the case of `CCCCCCN(CCCCCC)C(F)(F)C(=O)Nc1ccc(S(=O)(=O)c2ccc(NC(=O)C(F)(F)N(CCCCCC)CCCCCC)cc2)cc1`, the T/C (dose: 12.5 mg/kg/injection, schedule: Q01DX001 (ip), vehicle: saline) was 105 % of control, the T/C (dose: 25.0 mg/kg/injection, schedule: Q01DX001 (ip), vehicle: saline) was 100 % of control and the T/C [13] was 107 % of control.
In the case of `OCC1OC(n2cnc3c(SSc4ncnc5c4ncn5C4OC(CO)C(O)C4O)ncnc32)C(O)C1O` (stereo unspecified), the T/C [14] was 95 % of control, the T/C [15] was 106 % of control and the T/C [16] was 121 % of control.
`O=C(/C=C/c1ccccc1)N(c1ccccc1)C1CCCCC1` was tested, and the T/C [17] was 112 % of control, the T/C [18] was 89 % of control and the T/C [19] was 88 % of control.
In the case of `O=C1C(Br)C2CCC1C2C(=O)O` (stereo unspecified), the T/C [3] was 103 % of control, the T/C [4] was 87 % of control and the T/C [6] was 89 % of control and 96 % of control. The T/C [7] was 92 % of control, the T/C [9] was 100 % of control and 94 % of control and the T/C [10] was 101 % of control.
In the case of `O=c1c2ccccc2ncn1C1OC(CO)C(O)C1O` (stereo unspecified), the T/C [14] was 96 % of control, the T/C [15] was 102 % of control and the T/C [16] was 104 % of control.
`Cc1ccc(Cl)c(NC(=O)COc2ccc(Cl)cc2)c1` was tested, and the T/C [12] was 93 % of control, the T/C [20] was 94 % of control and the T/C [21] was 94 % of control.
`COc1ccc2c(c1)c1c(C)c3cnccc3c(C)c1n2CC1CO1` (stereo unspecified) was tested, and the T/C (dose: 4.7 mg/kg/injection, schedule: Q01DX009 (ip), vehicle: saline with Tween-80) was 100 % of control, the T/C (dose: 9.4 mg/kg/injection, schedule: Q01DX009 (ip), vehicle: saline with Tween-80) was 102 % of control and the T/C (dose: 18.75 mg/kg/injection, schedule: Q04DX003 (ip), vehicle: saline with Tween-80) was 116 % of control. The T/C [11] was 120 % of control and the T/C [22] was 91 % of control.
